Source: US20230131899A1, “INHIBITORS OF MICROBIALLY INDUCED AMYLOID” (Axial Therapeutics, Inc., priority 2020, published 2023)
Like-named read-outs stand apart in the source and are kept apart here.

Molecular target: T1, E. coli CsgA (Escherichia coli, UniProt P28307)
T1 construct: made in house; host or cells: E. coli NEB 3016 slyD::kan, pET11d
Experiment: In vitro ThioflavinT assay of CsgA aggregation (CsgA ThT Assay)
Assay type: biochemical
Method in brief: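 Purified C-terminal His-tagged CsgA, monomerised by desalting and 30-kDa filtration, at 2-20 μM with 20-40 μM ThT in 50 mM potassium phosphate pH 7.3, 1% DMSO, compounds 3.125-200 uM; room temperature, fluorescence (ex 438/em 495 nm) read every 15 min. Background-subtracted signal expressed as percent inhibition versus vehicle at 6-6.5 or 8-9 h, or as percent control AUC.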

[1] = read-out: CsgA ThT Assay (2 μM CsgA) % Control Bmax 25 μM, activity range, class symbol, CsgA 2 μM, white plates, compound 25 μM
[2] = read-out: CsgA ThT Assay (2 μM CsgA) % Control Bmax 25 μM, mean Bmax as percentage of DMSO control, CsgA 2 μM, white plates, compound 25 μM
[3] = read-out: CsgA ThT Assay (2 μM CsgA) % Control Bmax 100 μM, activity range, class symbol, CsgA 2 μM, white plates, compound 100 μM
[4] = read-out: CsgA ThT Assay (2 μM CsgA) % Control Bmax 100 μM, mean Bmax as percentage of DMSO control, CsgA 2 μM, white plates, compound 100 μM
[5] = read-out: CsgA ThT Assay (10 μM CsgA) % Control AUC at 1005 minutes, 25 μM (activity range), CsgA 10 μM, black plates, compound 25 μM, 1005 minutes, class symbol
[6] = read-out: CsgA ThT Assay (10 μM CsgA) % Control AUC at 1005 minutes, 25 μM, mean AUC as % of DMSO control, CsgA 10 μM, black plates, compound 25 μM, 1005 minutes
[7] = read-out: CsgA ThT Assay (10 μM CsgA) % Control AUC at 1005 minutes, 100 μM (activity range), CsgA 10 μM, black plates, compound 100 μM, 1005 minutes, class symbol
[8] = read-out: CsgA ThT Assay (10 μM CsgA) % Control AUC at 1005 minutes, 100 μM, mean AUC as % of DMSO control, CsgA 10 μM, black plates, compound 100 μM, 1005 minutes

T1 sequence (P28307 23-151): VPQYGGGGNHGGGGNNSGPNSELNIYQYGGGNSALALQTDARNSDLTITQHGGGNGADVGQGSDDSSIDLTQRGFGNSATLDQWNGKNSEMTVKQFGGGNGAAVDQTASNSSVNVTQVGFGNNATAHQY

Structure (SMILES)	remaining activity at 25 µM [1] [%]	remaining activity at 25 µM [2] [%]	remaining activity at 100 µM [3] [%]	remaining activity at 100 µM [4] [%]	remaining activity at 25 µM [5] [%]	remaining activity at 25 µM [6] [%]	remaining activity at 100 µM [7] [%]	remaining activity at 100 µM [8] [%]	also measured
O=C(O)[C@H]1CN(Cc2ccccc2)c2c(-c3cccc(C(F)(F)F)c3)c(Cc3cccc4ccccc34)c(Cl)c(=O)n21 (single isomer, unassigned) [Compound 004b]	31 to 60	54	31 to 60	40	–	–	–	–	–
CC1(C)Sc2c(-c3cccc(C(F)(F)F)c3)c(Cc3cccc4ccccc34)nc(=O)n2C1C(=O)O (centres unmarked) [Compound 059, 2,2-dimethyl-7-(naphthalen-1-ylmethyl)-5-oxo-8-(3-(trifluoromethyl)phenyl)-2,3-dihydro-5H-thiazolo[3,2-c]pyrimidine-3-carboxylic acid]	–	–	–	–	> 60	63	11 to 31	22	–
CNC(=O)CCCCN1CC(C(=O)O)n2c(c(-c3cccc(C(F)(F)F)c3)c(Cc3cccc4ccccc34)cc2=O)S1(=O)=O (centres unmarked) [Compound 038, 2-(5-(methylamino)-5-oxopentyl)-8-(naphthalen-1-ylmethyl)-6-oxo-9-(3-(trifluoromethyl)phenyl)-3,4-dihydro-2H,6H-pyrido[1,2-e][1,2,5]thiadiazine-4-carboxylic acid 1,1-dioxide]	–	–	–	–	> 60	86	11 to 31	25	–
O=C(O)C1CN(C[C@H](O)CO)S(=O)(=O)c2c(-c3cccc(C(F)(F)F)c3)c(Cc3cccc4ccccc34)cc(=O)n21 (stereo partly drawn) [Compound 065a, 2-((S)-2,3-dihydroxypropyl)-8-(naphthalen-1-ylmethyl)-6-oxo-9-(3-(trifluoromethyl)phenyl)-3,4-dihydro-2H,6H-pyrido[1,2-e][1,2,5]thiadiazine-4-carboxylic acid 1,1-dioxide]	–	–	–	–	> 60	65	11 to 31	18	–
CCc1c(Cc2cccc3ccccc23)c(-c2cccc(C(F)(F)F)c2)c2n(c1=O)C(C(=O)O)CN2Cc1ccccc1 (centres unmarked) [Compound 140, 1-benzyl-6-ethyl-7-(naphthalen-1-ylmethyl)-5-oxo-8-(3-(trifluoromethyl)phenyl)-1,2,3,5-tetrahydroimidazo[1,2-a]pyridine-3-carboxylic acid]	31 to 60	35	11 to 31	19	–	–	–	–	–
O=C(O)C1CN(Cc2cccc(O)c2)c2c(-c3cccc(C(F)(F)F)c3)c(Cc3cccc4ccccc34)c(Cl)c(=O)n21 (centres unmarked) [Compound 196, 6-chloro-1-(3-hydroxybenzyl)-7-(naphthalen-1-ylmethyl)-5-oxo-8-(3-(trifluoromethyl)phenyl)-1,2,3,5-tetrahydroimidazo[1,2-a]pyridine-3-carboxylic acid]	> 60	67	–	–	–	–	–	–	–
CCCN1CC(C(=O)O)n2c(c(-c3cccc(C(F)(F)F)c3)c(Cc3cccc4ccccc34)c(NC(=O)C(C)C)c2=O)S1(=O)=O (centres unmarked) [Compound 152, 7-isobutyramido-8-(naphthalen-1-ylmethyl)-6-oxo-2-propyl-9-(3-(trifluoromethyl)phenyl)-3,4-dihydro-2H,6H-pyrido[1,2-e][1,2,5]thiadiazine-4-carboxylic acid 1,1-dioxide]	> 60	90	> 60	107	–	–	–	–	–
CC(C)N1CC(C(=O)O)n2c(c(-c3cccc(C(F)(F)F)c3)c(Cc3cccc4ccccc34)c(C(N)=O)c2=O)S1(=O)=O (centres unmarked) [Compound 175, 7-carbamoyl-2-isopropyl-8-(naphthalen-1-ylmethyl)-6-oxo-9-(3-(trifluoromethyl)phenyl)-3,4-dihydro-2H,6H-pyrido[1,2-e][1,2,5]thiadiazine-4-carboxylic acid 1,1-dioxide]	31 to 60	33	11 to 31	24	–	–	–	–	–
CNC(=O)CCCN1CC(C(=O)O)n2c(c(-c3cccc(C(F)(F)F)c3)c(Cc3cccc4ccccc34)cc2=O)S1(=O)=O (centres unmarked) [Compound 037, 2-(4-(methylamino)-4-oxobutyl)-8-(naphthalen-1-ylmethyl)-6-oxo-9-(3-(trifluoromethyl)phenyl)-3,4-dihydro-2H,6H-pyrido[1,2-e][1,2,5]thiadiazine-4-carboxylic acid 1,1-dioxide]	–	–	–	–	> 60	71	31 to 60	53	–
Nc1c(Cc2cccc3ccccc23)c(-c2cccc(C(F)(F)F)c2)c2n(c1=O)C(C(=O)O)CS2 (single isomer, unassigned) [Compound 020b, 6-amino-7-(naphthalen-1-ylmethyl)-5-oxo-8-(3-(trifluoromethyl)phenyl)-2,3-dihydro-5H-thiazolo[3,2-a]pyridine-3-carboxylic acid]	–	–	–	–	–	–	–	–	CsgA ThT Assay (10 μM CsgA) % Control AUC at 1005 minutes, 25 μM (activity range) (CsgA 10 μM, black plates, compound 25 μM, 1005 minutes, class symbol): (+++) (% control AUC of 11 to 31%); CsgA ThT Assay (10 μM CsgA) % Control AUC at 1005 minutes, 100 μM (activity range) (CsgA 10 μM, black plates, compound 100 μM, 1005 minutes, class symbol): (+++) (% control AUC of 11 to 31%); CsgA ThT Assay (10 μM CsgA) % Control AUC at 1005 minutes, 25 μM (mean AUC as % of DMSO control, CsgA 10 μM, black plates, compound 25 μM, 1005 minutes): 26%; CsgA ThT Assay (10 μM CsgA) % Control AUC at 1005 minutes, 100 μM (mean AUC as % of DMSO control, CsgA 10 μM, black plates, compound 100 μM, 1005 minutes): 16%
Cn1c(=O)c2c(nc(CCCCCCCN3CC(C(=O)O)n4c(c(-c5cccc(C(F)(F)F)c5)c(Cc5cccc6ccccc56)cc4=O)S3(=O)=O)n2C)n(C)c1=O (centres unmarked) [Compound 047, 8-(naphthalen-1-ylmethyl)-6-oxo-9-(3-(trifluoromethyl)phenyl)-2-(7-(1,3,7-trimethyl-2,6-dioxo-2,3,6,7-tetrahydro-1H-purin-8-yl)heptyl)-3,4-dihydro-2H,6H-pyrido[1,2-e][1,2,5]thiadiazine-4-carboxylic acid 1,1-dioxide]	–	–	–	–	31 to 60	55	> 60	71	–
CCCN1CC(C(=O)O)n2c(c(-c3cccc(C(F)(F)F)c3)c(Cc3cccc4ccccc34)c(Cl)c2=O)S1(=O)=O (centres unmarked) [Compound 142, 7-chloro-8-(naphthalen-1-ylmethyl)-6-oxo-2-propyl-9-(3-(trifluoromethyl)phenyl)-3,4-dihydro-2H,6H-pyrido[1,2-e][1,2,5]thiadiazine-4-carboxylic acid 1,1-dioxide]	> 60	87	> 60	121	–	–	–	–	–
O=C(O)C1CN(C[C@H](O)[C@@H](O)[C@H](O)[C@H](O)CO)S(=O)(=O)c2c(-c3cccc(C(F)(F)F)c3)c(Cc3cccc4ccccc34)cc(=O)n21 (mixture of isomers) [Compound 066, 8-(naphthalen-1-ylmethyl)-6-oxo-2-((2S,3R,4R,5R)-2,3,4,5,6-pentahydroxyhexyl)-9-(3-(trifluoromethyl)phenyl)-3,4-dihydro-2H,6H-pyrido[1,2-e][1,2,5]thiadiazine-4-carboxylic acid 1,1-dioxide]	–	–	–	–	> 60	88	11 to 31	29	–
O=C(O)C1CN(CCCCCCCN2CC(C(=O)O)n3c2c(-c2cccc(C(F)(F)F)c2)c(Cc2cccc4ccccc24)c(Cl)c3=O)c2c(-c3cccc(C(F)(F)F)c3)c(Cc3cccc4ccccc34)c(Cl)c(=O)n21 (centres unmarked) [Compound 188, 1,1′-(heptane-1,7-diyl)bis(6-chloro-7-(naphthalen-1-ylmethyl)-5-oxo-8-(3-(trifluoromethyl)phenyl)-1,2,3,5-tetrahydroimidazo[1,2-a]pyridine-3-carboxylic acid)]	31 to 60	33	11 to 31	14	–	–	–	–	–
O=C(O)C1CN(C[C@@H](O)CO)S(=O)(=O)c2c(-c3cccc(C(F)(F)F)c3)c(Cc3cccc4ccccc34)cc(=O)n21 (mixture of isomers) [Compound 065b, 2-((R)-2,3-dihydroxypropyl)-8-(naphthalen-1-ylmethyl)-6-oxo-9-(3-(trifluoromethyl)phenyl)-3,4-dihydro-2H,6H-pyrido[1,2-e][1,2,5]thiadiazine-4-carboxylic acid 1,1-dioxide]	–	–	–	–	> 60	66	11 to 31	16	–
CCCN1CC(C(=O)O)n2c1c(-c1cccc(C(F)(F)F)c1)c(Cc1cccc3ccccc13)c(Cl)c2=O (centres unmarked) [Compound 162, 6-chloro-7-(naphthalen-1-ylmethyl)-5-oxo-1-propyl-8-(3-(trifluoromethyl)phenyl)-1,2,3,5-tetrahydroimidazo[1,2-a]pyridine-3-carboxylic acid]	31 to 60	34	31 to 60	49	–	–	–	–	–
